Test results taken from ChEMBL document CHEMBL5236635, “Structure-Based Drug Design and Synthesis of Novel N-Aryl-2,4-bithiazole-2-amine CYP1B1-Selective Inhibitors in Overcoming Taxol Resistance in A549 Cells” (J Med Chem, 2022).

Tests used:
CYP1B1 = biological target: T1, CYP1B1 (Homo sapiens, UniProt Q16678); experiment: Inhibition of recombinant human CYP1B1 assessed as inhibition ratio at 100 nM using 7-ethyl-0-resorufin as substrate incubated for 30 mins in presence of NADPH by EROD assay relative to control; conditions: recombinant human CYP1B1, probe 7-ethyl-0-resorufin
T1 sequence (Q16678 whole entry): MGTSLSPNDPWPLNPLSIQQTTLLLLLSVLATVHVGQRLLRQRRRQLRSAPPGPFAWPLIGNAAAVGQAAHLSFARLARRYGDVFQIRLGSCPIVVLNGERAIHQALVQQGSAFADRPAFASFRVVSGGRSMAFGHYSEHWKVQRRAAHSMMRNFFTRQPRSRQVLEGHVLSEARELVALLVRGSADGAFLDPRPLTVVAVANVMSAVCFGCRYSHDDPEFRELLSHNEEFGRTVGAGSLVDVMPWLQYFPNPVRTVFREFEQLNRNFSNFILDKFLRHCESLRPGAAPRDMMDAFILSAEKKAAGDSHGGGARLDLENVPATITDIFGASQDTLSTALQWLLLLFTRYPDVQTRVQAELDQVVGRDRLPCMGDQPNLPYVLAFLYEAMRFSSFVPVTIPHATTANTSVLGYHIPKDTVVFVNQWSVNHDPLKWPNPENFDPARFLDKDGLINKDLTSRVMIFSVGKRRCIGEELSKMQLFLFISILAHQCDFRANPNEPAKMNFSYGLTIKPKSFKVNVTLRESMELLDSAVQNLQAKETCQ

CYP1A1 versus CYP1B1 = experiment: Selectivity index, ratio of IC50 for inhibition of recombinant human CYP1A1 to IC50 for inhibition of recombinant human CYP1B1; conditions: recombinant human CYP1A1 and recombinant human CYP1B1
Cytochrome P450 1A1 = biological target: T2, Cytochrome P450 1A1 (Homo sapiens, UniProt P04798); experiment: Inhibition of recombinant human CYP1A1 using 7-ethyl-0-resorufin as substrate incubated for 30 mins in presence of NADPH by EROD assay
T2 sequence (P04798 whole entry): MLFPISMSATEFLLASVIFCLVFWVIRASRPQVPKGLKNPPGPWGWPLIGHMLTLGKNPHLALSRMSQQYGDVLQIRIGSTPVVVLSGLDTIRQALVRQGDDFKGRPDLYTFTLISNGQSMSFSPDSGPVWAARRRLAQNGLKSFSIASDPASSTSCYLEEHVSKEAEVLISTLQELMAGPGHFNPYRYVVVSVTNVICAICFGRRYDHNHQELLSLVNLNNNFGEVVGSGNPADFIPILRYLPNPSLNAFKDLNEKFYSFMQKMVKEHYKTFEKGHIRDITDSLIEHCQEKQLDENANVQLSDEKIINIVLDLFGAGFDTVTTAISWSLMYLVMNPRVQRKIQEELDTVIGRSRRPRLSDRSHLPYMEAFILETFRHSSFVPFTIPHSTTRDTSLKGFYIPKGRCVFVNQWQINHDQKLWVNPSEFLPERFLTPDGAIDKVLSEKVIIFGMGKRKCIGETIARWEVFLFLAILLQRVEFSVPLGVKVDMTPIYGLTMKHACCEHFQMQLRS

Cytochrome P450 1A2 = biological target: T3, Cytochrome P450 1A2 (Homo sapiens, UniProt P05177); experiment: Inhibition of recombinant human CYP1A2 using 7-ethyl-0-resorufin as substrate incubated for 30 mins in presence of NADPH by EROD assay
T3 sequence (P05177 whole entry): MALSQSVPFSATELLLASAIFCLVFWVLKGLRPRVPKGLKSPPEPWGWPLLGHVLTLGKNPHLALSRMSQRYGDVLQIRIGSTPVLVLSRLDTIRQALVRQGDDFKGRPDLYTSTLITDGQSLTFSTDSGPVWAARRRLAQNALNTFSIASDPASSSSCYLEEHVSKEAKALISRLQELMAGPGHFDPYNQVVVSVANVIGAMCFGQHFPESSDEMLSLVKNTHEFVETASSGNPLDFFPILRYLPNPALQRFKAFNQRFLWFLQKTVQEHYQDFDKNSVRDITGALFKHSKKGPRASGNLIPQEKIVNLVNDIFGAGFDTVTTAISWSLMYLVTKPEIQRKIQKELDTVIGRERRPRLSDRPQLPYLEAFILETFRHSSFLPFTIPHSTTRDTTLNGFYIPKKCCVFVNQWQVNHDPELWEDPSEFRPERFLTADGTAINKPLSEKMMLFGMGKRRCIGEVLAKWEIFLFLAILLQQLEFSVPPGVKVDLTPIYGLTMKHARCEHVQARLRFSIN

Cytochrome P450 1B1 = biological target: T4, Cytochrome P450 1B1 (Homo sapiens, UniProt Q16678); experiment: Inhibition of recombinant human CYP1B1 using 7-ethyl-0-resorufin as substrate incubated for 30 mins in presence of NADPH by EROD assay
T4 sequence (Q16678 whole entry): T1 sequence (Q16678 whole entry)

CYP1A2 versus CYP1B1 = experiment: Selectivity index, ratio of IC50 for inhibition of recombinant human CYP1A2 to IC50 for inhibition of recombinant human CYP1B1; conditions: recombinant human CYP1A2 and recombinant human CYP1B1

Structure (SMILES)	inhibition at 0.5 h, 0.1 µM (CYP1B1)	IC50 (Cytochrome P450 1A1)	IC50 (Cytochrome P450 1B1)	further results
c1cc(Nc2nc(-c3nccs3)cs2)c2cccnc2c1	36%	–	–	–
Fc1ccc(Nc2nc(-c3nccs3)cs2)cc1Cl	94.1%	–	–	–
Nc1ccc(Nc2nc(-c3nccs3)cs2)cc1	54%	–	–	–
c1cnc2ccc(Nc3nc(-c4nccs4)cs3)cc2c1	93.4%	–	–	–
Clc1cc(Cl)cc(Nc2nc(-c3nc(-c4cccnc4)cs3)cs2)c1	–	387 nM	33.1 nM	selectivity ratio (CYP1A1 versus CYP1B1): 11.7; IC50 (Cytochrome P450 1A2): 227 nM; selectivity ratio (CYP1A2 versus CYP1B1): 6.85
CCc1sc(-c2csc(Nc3cccc(F)c3)n2)nc1-c1ccccc1	–	246 nM	246 nM	–
Fc1ccccc1-c1csc(-c2csc(Nc3ccc(N4CCOCC4)cc3)n2)n1	–	110 nM	12.9 nM	selectivity ratio (CYP1A1 versus CYP1B1): 8.48; IC50 (Cytochrome P450 1A2): 5060 nM; selectivity ratio (CYP1A2 versus CYP1B1): 392
c1cc(-c2csc(-c3csc(Nc4ccc(N5CCOCC5)cc4)n3)n2)ccn1	–	4460 nM	153 nM	selectivity ratio (CYP1A1 versus CYP1B1): 29.2; IC50 (Cytochrome P450 1A2): 312 nM; selectivity ratio (CYP1A2 versus CYP1B1): 2.04
COc1cccc(-c2csc(-c3csc(Nc4ccc(N5CCOCC5)cc4)n3)n2)c1	–	315 nM	26.8 nM	selectivity ratio (CYP1A1 versus CYP1B1): 11.7; IC50 (Cytochrome P450 1A2): 4670 nM; selectivity ratio (CYP1A2 versus CYP1B1): 174
Clc1cc(Cl)cc(Nc2nc(-c3nc(-c4ccccc4)c(-c4ccccc4)s3)cs2)c1	–	1920 nM	39 nM	selectivity ratio (CYP1A1 versus CYP1B1): 49.3; IC50 (Cytochrome P450 1A2): 381 nM; selectivity ratio (CYP1A2 versus CYP1B1): 9.77
CC(=O)Nc1cccc(Nc2nc(-c3nccs3)cs2)c1	93.7%	–	–	–
COc1cc(Nc2nc(-c3nc(-c4ccccc4Cl)cs3)cs2)cc(OC)c1	–	323 nM	8.07 nM	selectivity ratio (CYP1A1 versus CYP1B1): 40; IC50 (Cytochrome P450 1A2): 1250 nM; selectivity ratio (CYP1A2 versus CYP1B1): 155
COc1cc(Nc2nc(-c3nc(-c4cccc(F)c4)cs3)cs2)cc(OC)c1	–	820 nM	11.1 nM	–
O=[N+]([O-])c1ccc(Nc2nc(-c3nccs3)cs2)cc1	41.3%	–	–	–
COc1cc(Nc2nc(-c3nc(-c4cccc(Cl)c4)cs3)cs2)cc(OC)c1	–	6520 nM	15.9 nM	–
Fc1cccc(Nc2nc(-c3nc(-c4ccc(Cl)cc4F)cs3)cs2)c1	–	> 10000 nM	> 1000 nM	IC50 (Cytochrome P450 1A2): > 10000 nM
Fc1ccc(Nc2nc(-c3nccs3)cs2)nc1	75%	–	–	–
Fc1cccc(Nc2nc(-c3nc(-c4cccnc4)cs3)cs2)c1	–	30.3 nM	0.551 nM	–
N#Cc1ccc(Nc2nc(-c3nccs3)cs2)cc1	81.5%	–	–	–
COc1cc(Nc2nc(-c3nc(-c4cccc(C#N)c4)cs3)cs2)cc(OC)c1	–	552 nM	16.7 nM	–
Fc1cc(Cl)ccc1-c1csc(-c2csc(Nc3ccc(N4CCOCC4)cc3)n2)n1	–	> 10000 nM	534 nM	IC50 (Cytochrome P450 1A2): 995 nM; selectivity ratio (CYP1A2 versus CYP1B1): 1.86
c1csc(-c2csc(Nc3ccc(-n4cncn4)cc3)n2)n1	82%	–	–	–
c1csc(-c2csc(Nc3ccc(N4CCNCC4)cc3)n2)n1	43.7%	–	–	–
COc1cccc(Nc2nc(-c3nccs3)cs2)c1	94.2%	414 nM	–	selectivity ratio (CYP1A1 versus CYP1B1): 5.39
Clc1ccccc1Nc1nc(-c2nccs2)cs1	72.8%	–	–	–

Structure (SMILES)	inhibition at 0.5 h, 0.1 µM (CYP1B1)	IC50 (Cytochrome P450 1A1)	IC50 (Cytochrome P450 1B1)	further results
Fc1cccc(Nc2nc(-c3nc(-c4ccccc4)cs3)cs2)c1	–	1270 nM	6.49 nM	–
COc1ccc(Nc2nc(-c3nccs3)cs2)cc1	78%	–	–	–
Clc1cc(Cl)cc(Nc2nc(-c3nc(-c4ccccc4)cs3)cs2)c1	–	896 nM	20.1 nM	–
O=[N+]([O-])c1cccc(Nc2nc(-c3nccs3)cs2)c1	57.6%	–	–	–
c1cc(Nc2nc(-c3nccs3)cs2)cc(-n2ccnc2)c1	92.4%	–	–	–
Fc1cccc(Nc2nc(-c3nc(-c4ccccc4)c(-c4ccccc4)s3)cs2)c1	–	6780 nM	518 nM	–
COc1cc(Nc2nc(-c3nc(-c4ccc(Cl)cc4F)cs3)cs2)cc(OC)c1	–	> 10000 nM	12.7 nM	IC50 (Cytochrome P450 1A2): > 10000 nM
Clc1cccc(Nc2nc(-c3nccs3)cs2)c1	90%	262 nM	7.6 nM	–
c1ccc(Nc2nc(-c3nccs3)cs2)cc1	56.4%	–	–	–
COc1ccccc1Nc1nc(-c2nccs2)cs1	60%	–	–	–
c1ccc2cc(Nc3nc(-c4nccs4)cs3)ccc2c1	80%	–	–	–
Clc1cc(Cl)cc(Nc2nc(-c3nc(-c4ccccc4Cl)cs3)cs2)c1	–	1120 nM	6.64 nM	–
CN1CCN(c2ccc(Nc3nc(-c4nccs4)cs3)cc2)CC1	51%	–	–	–
COc1ccc(-c2csc(-c3csc(Nc4cc(OC)cc(OC)c4)n3)n2)cc1	–	823 nM	51.3 nM	–
Clc1ccc(Nc2nc(-c3nccs3)cs2)nc1	78.8%	–	–	–
Fc1ccccc1Nc1nc(-c2nccs2)cs1	89.6%	–	–	–
Oc1ccc(Nc2nc(-c3nccs3)cs2)cc1	73.9%	–	–	–
Fc1ccc(Nc2nc(-c3nccs3)cs2)cc1	92%	957 nM	35.7 nM	–
Nc1cccc(Nc2nc(-c3nccs3)cs2)c1	57.9%	–	–	–
COc1cc(Nc2nc(-c3nc(-c4ccc(F)cc4)cs3)cs2)cc(OC)c1	–	> 10000 nM	65.1 nM	–
Oc1cccc(Nc2nc(-c3nccs3)cs2)c1	72.8%	–	–	–
COc1cc(Nc2nc(-c3nc(-c4ccccc4)cs3)cs2)cc(OC)c1	–	222 nM	3.92 nM	–
COc1ccc(Nc2nc(-c3nccs3)cs2)cc1OC	78.9%	–	–	–
Fc1cccc(Nc2nc(-c3nc(-c4ccccn4)cs3)cs2)c1	–	314 nM	11.8 nM	–
